The test system of series [1] is human red blood cells (RBCs, blood type O). Nature of the series: Hemolytic activity assay. The conditions noted are these: 3% hematocrit, 60 min, 37 °C; for Hemolysis against RBCs up to 100 μg/mL: A405, up to concentrations of 100 μg/mL, triplicate averaged. The class given is cell-based. On the procedure: The hemolytic activity of the peptides was determined using human red blood cells (RBCs, blood type O). The RBCs were collected from citric acid-treated blood by centrifugation at 3000× g for 5 min and washed three times with 10 mM PB (pH 7.4) containing 150 mM NaCl to remove the plasma and buffy coat. A suspension of 3% hematocrit in buffer with or without peptides was incubated for 60 min at 37 °C. Hemolysis was expressed as the hemoglobin content obtained from the absorbance of the supernatant at 405 nm after centrifugation at 3000× g for 5 min. A 100% hemolysis was determined based on hemoglobin release after the addition of 0.1% Triton X-100. The hemolysis percentage of the peptides was calculated using the following formula: % Hemolysis = [(Abs405nm in the peptide solution − Abs405nm in buffer)/(Abs405nm in 0.1% Triton X-100 − Abs405nm in buffer)] × 100
Hemolytic assays were performed in triplicate and the results were averaged.

Series [2] deals with S. iniae. Nature of the series: URDA of non-heated and heated peptides. The class given is cell-based, Streptococcus iniae. As to conditions: non-heated and after 100 °C for 10 min. On the procedure:
(§1) The antimicrobial activity of the purified peptide was assessed as described previously. We tested the synthetic peptides against several Gram-positive bacteria including two Bacillus subtilis strains, Micrococcus luteus, Staphylococcus aureus, and Streptococcus iniae, Gram-negative bacteria including three Escherichia coli strains, Aeromonas hydrophila, Edwardsiella tarda, Pseudomonas aeruginosa, Vibrio parahemolyticus, and Salmonella enteric, as well as the yeast Candida albicans. All strains were grown overnight for 18 h in trypticase soy broth (TSB) or sabouraud dextrose broth (SDB) at the appropriate temperature (25 °C for A. hydrophila, E. tarda, P. aeruginosa, S. iniae, and V. parahemolyticus and 37 °C for the other strains). After an overnight incubation, the bacterial and C. albicans suspensions were diluted to a McFarland turbidity standard of 0.5 (Vitek Colorimeter #52-1210; Hach, Loveland, CO, USA) corresponding to ~10^8 CFU/mL for bacteria and ~10^6 CFU/mL for C. albicans. One-half milliliter of diluted bacterial or C. albicans suspension was added to 9.5 mL of underlay gel containing 5 × 10^6 CFU/mL or 5 × 10^4 CFU/mL in 10 mM phosphate buffer (PB; pH 6.6) with 0.03% TSB or 0.03% SDB and 1% Type I (low EEO) agarose. The purified peptide was serially diluted twofold in 5 μL of acidified water (0.01% HAc), and each dilution was added to 2.5-mm-diameter wells made in the 1-mm-thick underlay gels. After incubation for 3 h at either 25 °C (for A. hydrophila, E. tarda, P. aeruginosa, S. iniae, and V. parahemolyticus) or 37 °C (the other strains), the bacterial or yeast suspension was overlaid with 10 mL of double-strength overlay gel containing 6% TSB or 6% SDB with 10 mM PB (pH 6.6) in 1% agarose. Plates were incubated for an additional 18–24 h, after which the clearing zone diameters were measured. After subtracting the diameter of the well, the clearing zone diameter was expressed in units (0.1 mm = 1 U).
(§2) To investigate the effect of temperature on ofLBP analogs, antimicrobial activity was tested using an ultrasensitive radial diffusion assay (URDA) against two bacteria including V. harveyi and S. iniae, as well as a yeast, C. albicans. To explore thermal stability, the ofLBP analogs were incubated at 100 °C for 10 min. After heat treatment, the peptides were cooled and used for URDA as described above.

In series [3] the test system is C. albicans. The experiment in a line: URDA of non-heated and heated peptides. The class given is cell-based, Candida albicans. As to conditions: non-heated and after 100 °C for 10 min. On the procedure: as §1, §2
For series [4], the system named is λ-HindIII-digested DNA. Nature of the series: DNA-binding assay (gel retardation, EMSA). The conditions noted are these: λ-HindIII-digested DNA 50 ng, 5 min room temperature, 1.0% agarose; for Electrophoretic mobility of DNA at 0.625 μg peptide: peptide 0.625 μg. Here is the method: DNA binding assays were performed as described previously with minor modifications. This test assessed peptide-DNA binding by examining the inhibition of the rate of migration of DNA bands through agarose gels. A commercial molecular weight marker, λ-HindIII-digested DNA (50 ng) (Roche, Basel, Switzerland), was mixed with varying amounts of peptide (0 μg, 0.156 μg, 0.313 μg, 0.625 μg, and 1.25 μg) in 0.01% acetic acid, incubated at room temperature for 5 min, and then electrophoresed in 1.0% agarose gels containing 0.5 μg/mL ethidium bromide (EtBr).

In series [5] the test system is DNA polymerase. As to conditions: PCR of E. coli 16S rDNA; for DNA polymerase inhibitory ability: 100 ng genomic DNA, 30 cycles. Here is the method:
The ofLBP analogs were dissolved in 0.01% acetic acid at a concentration of 1000 μg/mL. To assess PCR inhibition, various concentrations of the ofLBP analogs (2.5, 1.25, 0.625, and 0.313 μg/mL) were added to the respective reaction mixtures. E. coli genomic DNA (100 ng) was used as a template for PCR with the following primer pairs: 16S-F1, 5′-[…]-3′ and 16S-R3, 5′-[…]-3′. The predicted amplicon is ~1.5 kb in length. Each PCR comprised 30 cycles each of 30 s at 95 °C, 30 s at 55 °C, and 1 min at 72 °C. After PCR, all amplicons were electrophoresed in 1.0% agarose gels containing EtBr.

The test system of series [6] is E. coli D31. Nature of the series: URDA, MEC. The class given is cell-based, Escherichia coli. The conditions noted are these: E. coli D31, Gram −, pH 6.6, 37 °C, triplicate averaged. On the procedure: as §1
All tested bacteria and yeast were prepared as described above. The minimal effective concentration (MEC, μg/mL) of the synthetic peptides was calculated as the x-intercept of a plot of units against the log10 of the peptide concentration. […] The antimicrobial assay was performed in triplicate and the results were averaged.

The subject of series [7] is B. subtilis KCTC1021. The experiment in a line: Killing kinetic assay. The class given is cell-based, Bacillus subtilis. As to conditions: 10^6 CFU/mL, 37 °C, triplicate averaged. On the procedure: (§3) To determine the killing activities of ofLBP-derived analogs, kinetic studies were performed using B. subtilis KCTC1021 and E. coli ML35p at 1× MEC and 5× MEC concentrations. Overnight culture of B. subtilis KCTC1021 and E. coli ML35p were diluted in TBS to a cell density of 10^6 CFU/mL and 1 mL of each suspension was exposed to each ofLBP-derived analog and incubated at 37 °C overnight. The resulting colonies were counted. Percent killing was calculated as the proportion of live bacteria at a given time point following the addition of peptide compared to the number of bacteria present prior to the addition of peptide. Control cultures of each bacterium were incubated without any peptide and assayed at time points corresponding to the test culture assays to ensure no spontaneous loss of viability. Killing kinetic assays were also performed in triplicate, and the results were averaged.

The test system of series [8] is E. coli ML35p. Nature of the series: Killing kinetic assay. The class given is cell-based, Escherichia coli. As to conditions: 10^6 CFU/mL, 37 °C; for Time to kill E. coli ML35p at 5× MEC: triplicate averaged. On the procedure:
as §3

Where no end group is shown, it is not given here.

In the case of KLVKTQLKVLK [ofLBP 4N], the “Hemolysis against RBCs up to 100 μg/mL” value in series [1] is listed as “did not cause hemolysis”. Besides, in series [2], the “Antimicrobial activity against S. iniae (URDA)” value was “did not show any antimicrobial activity”. The “Antimicrobial activity against C. albicans (URDA)” value in series [3] was “did not show any antimicrobial activity”. Besides, in series [4], the “Electrophoretic mobility of DNA at 0.625 μg peptide” value is on record as “slightly inhibited”. Also, the “Electrophoretic mobility of DNA at 1.25 μg peptide” value in series [4] (peptide 1.25 μg) is on record as “almost completely inhibited”. For the same substance, the “DNA polymerase inhibitory ability” value in series [5] is given as “no DNA polymerase inhibitory ability”.

Turning to KLVKTWLKVLK [ofLBP 5A], the “Minimal Effectives Concentration” value in series [6] was determined as 0.9 µg/mL. In addition, the “Hemolysis against RBCs up to 100 μg/mL” value in series [1] was “did not cause hemolysis”. Also, the “Antimicrobial activity against C. albicans (URDA)” value in series [3] is reported as “significant activity”. Besides, in series [4], the “Electrophoretic mobility of DNA at 0.625 μg peptide” value is given as “almost completely inhibited”. Besides, the “DNA polymerase inhibitory ability” value in series [5] is reported as “strong DNA polymerase inhibitory ability”. In addition, the “DNA polymerase inhibition at 1.25 μg” value in series [5] (1.25 μg peptide, compared to ofLBP 6A) was “less inhibitory activity”.

In the case of MKLVKTWLKVLK-NH2 [ofLBP 6A], the “Minimal Effectives Concentration” value in series [6] is 2.6 µg/mL. The “Hemolytic activity at 50 μg/mL” value in series [1] was “did not show significant hemolytic activity”. Further, in series [7], the “Time to kill B. subtilis KCTC1021 at 1× MEC” value is reported as not above 40 min and the “Time to kill B. subtilis KCTC1021 at 5× MEC” value is not above 10 min. Besides, in series [8], the “Killing of E. coli ML35p at 1× MEC” value is “did not kill” and the “Time to kill E. coli ML35p at 5× MEC” value is not above 60 min. Besides, the “Antimicrobial activity against S. iniae (URDA)” value in series [2] is recorded as “significant activity”. For the same substance, in series [3], the “Antimicrobial activity against C. albicans (URDA)” value is “significant activity”. Moreover, the “Electrophoretic mobility of DNA at 0.625 μg peptide” value in series [4] is “almost completely inhibited”. Moreover, the “DNA polymerase inhibitory ability” value in series [5] is recorded as “strong DNA polymerase inhibitory ability”. Besides, the “DNA polymerase inhibition at all tested concentrations” value in series [5] (0.313–2.5 μg peptide) is “complete inhibitory activity”.

For the substance Piscidin 1 [reference compound], the “Minimal Effectives Concentration” value in series [6] came to 2.0 µg/mL. Also, in series [7], the “Time to kill B. subtilis KCTC1021 at 1× MEC” value is not above 40 min and the “Time to kill B. subtilis KCTC1021 at 5× MEC” value is listed as not above 10 min. In series [8], the “Killing of E. coli ML35p at 1× MEC” value is on record as “did not kill” and the “Time to kill E. coli ML35p at 5× MEC” value is listed as not above 40 min.

As to “RFPGLMMKLLV-NH2 (C-terminus assumed) [ofLBP 1N]”, in series [6], the “Minimal Effectives Concentration” value came out at 1.3 µg/mL. The “Hemolytic activity at 50 μg/mL” value in series [1] is on record as “did not show significant hemolytic activity”. The “Antimicrobial activity against S. iniae (URDA)” value in series [2] is “significant activity”. In series [3], the “Antimicrobial activity against C. albicans (URDA)” value was “significant activity”.

Turning to RFPKLMMKLLV-NH2 [ofLBP 2A], the “Minimal Effectives Concentration” value in series [6] is 0.5 µg/mL. Also, the “Hemolytic activity at 50 μg/mL” value in series [1] was “did not show significant hemolytic activity”. Besides, the “Hemolytic activity from 50–100 μg/mL” value in series [1] (concentrations of 50–100 μg/mL, 100% = 0.1% Triton X-100) is 28%–50%. The “Antimicrobial activity against S. iniae (URDA)” value in series [2] is listed as “significant activity”. Further, in series [3], the “Antimicrobial activity against C. albicans (URDA)” value is “significant activity”.

The record behind these values is publication PMC4210897, “Antimicrobial Activity of Peptides Derived from Olive Flounder Lipopolysaccharide Binding Protein/Bactericidal Permeability-Increasing Protein (LBP/BPI)” (Marine Drugs, 2014).
